Assay results from patent publication US20250154109A1, “SODIUM CHANNEL BLOCKING COMPOUNDS, DERIVATIVES THEREOF, AND METHODS OF THEIR USE” (LATIGO BIOTHERAPEUTICS, INC, priority 2022, published 2025).
Structures can show the parent of a compound that is named as a salt. Where two headings read alike, the source gives them in different places.

Biological target: human Nav1.8 (Homo sapiens, UniProt Q9Y5Y9)
Assay: SyncroPatch384PE assay (automated patch clamp)
Format: cell-based
Conditions: human Nav1.8/b3 CHO cells
[1] = inactivated state block (P2 measurement), read-out: P2 IC50
[2] = resting state block (P1 measurement), read-out: P1 IC50

Sequence of human Nav1.8 (Q9Y5Y9 whole entry): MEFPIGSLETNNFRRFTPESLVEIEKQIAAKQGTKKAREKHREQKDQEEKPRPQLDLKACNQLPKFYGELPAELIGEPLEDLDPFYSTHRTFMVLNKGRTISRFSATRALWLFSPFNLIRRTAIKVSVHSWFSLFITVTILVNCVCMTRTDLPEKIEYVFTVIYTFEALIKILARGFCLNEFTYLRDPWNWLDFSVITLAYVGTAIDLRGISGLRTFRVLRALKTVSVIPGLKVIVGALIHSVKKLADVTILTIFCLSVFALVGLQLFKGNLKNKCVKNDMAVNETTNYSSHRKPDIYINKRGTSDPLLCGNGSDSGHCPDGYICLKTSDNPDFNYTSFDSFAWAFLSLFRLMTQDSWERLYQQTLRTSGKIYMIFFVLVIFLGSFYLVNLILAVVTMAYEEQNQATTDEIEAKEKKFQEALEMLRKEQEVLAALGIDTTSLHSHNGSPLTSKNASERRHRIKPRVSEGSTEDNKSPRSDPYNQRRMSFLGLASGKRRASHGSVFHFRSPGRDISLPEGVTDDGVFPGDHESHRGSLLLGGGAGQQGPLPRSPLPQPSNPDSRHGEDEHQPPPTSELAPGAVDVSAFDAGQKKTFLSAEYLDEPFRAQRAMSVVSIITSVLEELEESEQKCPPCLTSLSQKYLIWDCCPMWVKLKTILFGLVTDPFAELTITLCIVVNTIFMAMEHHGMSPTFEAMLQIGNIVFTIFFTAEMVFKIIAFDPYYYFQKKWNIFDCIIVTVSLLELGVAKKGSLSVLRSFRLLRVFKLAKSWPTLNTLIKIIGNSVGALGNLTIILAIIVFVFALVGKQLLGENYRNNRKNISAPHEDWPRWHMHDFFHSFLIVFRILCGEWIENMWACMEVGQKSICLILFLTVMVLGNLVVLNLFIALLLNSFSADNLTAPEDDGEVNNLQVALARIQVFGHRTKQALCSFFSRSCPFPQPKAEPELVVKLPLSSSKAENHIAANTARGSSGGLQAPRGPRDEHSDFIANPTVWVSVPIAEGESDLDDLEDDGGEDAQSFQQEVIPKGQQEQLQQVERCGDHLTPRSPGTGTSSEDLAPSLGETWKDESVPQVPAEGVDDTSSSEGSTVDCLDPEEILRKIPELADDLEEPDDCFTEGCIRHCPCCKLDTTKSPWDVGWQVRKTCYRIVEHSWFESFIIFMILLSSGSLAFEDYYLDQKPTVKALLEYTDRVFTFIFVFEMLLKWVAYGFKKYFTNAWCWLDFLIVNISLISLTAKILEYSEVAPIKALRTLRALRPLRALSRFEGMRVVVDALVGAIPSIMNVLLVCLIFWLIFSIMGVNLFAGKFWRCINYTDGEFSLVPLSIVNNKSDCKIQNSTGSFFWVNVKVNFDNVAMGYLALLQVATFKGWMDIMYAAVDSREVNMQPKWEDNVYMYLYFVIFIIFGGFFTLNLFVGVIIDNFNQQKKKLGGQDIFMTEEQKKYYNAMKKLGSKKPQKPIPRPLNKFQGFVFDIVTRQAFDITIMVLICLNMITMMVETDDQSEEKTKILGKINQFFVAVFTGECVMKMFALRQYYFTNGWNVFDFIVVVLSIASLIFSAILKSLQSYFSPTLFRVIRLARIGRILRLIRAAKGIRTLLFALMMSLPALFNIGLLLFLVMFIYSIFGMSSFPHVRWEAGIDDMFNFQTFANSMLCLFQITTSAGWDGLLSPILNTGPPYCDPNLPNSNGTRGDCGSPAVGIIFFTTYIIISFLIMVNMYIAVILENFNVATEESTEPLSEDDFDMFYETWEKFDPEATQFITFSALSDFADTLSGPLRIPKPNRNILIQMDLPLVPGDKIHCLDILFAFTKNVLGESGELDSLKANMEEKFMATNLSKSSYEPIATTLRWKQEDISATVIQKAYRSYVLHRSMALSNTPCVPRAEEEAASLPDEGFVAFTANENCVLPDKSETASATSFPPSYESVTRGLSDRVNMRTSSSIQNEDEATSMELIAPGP

SMILES	IC50 [1] [nM]	IC50 [2] [nM]
C[S@](=N)(=O)c1cccc(NC(=O)c2cc(C(F)(F)F)nnc2N2CCCC(F)(F)CC2)c1 [Example 19, (S)-3-(4,4-difluoroazepan-1-yl)-N-(3-(S-methylsulfonimidoyl)phenyl)-6-(trifluoromethyl)pyridazine-4-carboxamide]	100 to 200	> 200
Cc1c(C(F)(F)F)cnc(N2CCCC(F)(F)CC2)c1C(=O)Nc1cccc([S@@](C)(=O)=NC(=O)[C@H](C)O)c1 [Example 192, 2-(4,4-difluoroazepan-1-yl)-N-(3-((R)-N-((S)-2-hydroxypropanoyl)-S-methylsulfonimidoyl)phenyl)-4-methyl-5-(trifluoromethyl)nicotinamide]	≤ 5	≤ 5
Cc1c(-c2cnn(C)c2)cnc(N2CCCC(F)(F)CC2)c1C(=O)Nc1cccc([S@@](C)(=O)=NC(=O)C2CNC2)c1 [Example 51, (R)-N-(3-(N-(azetidine-3-carbonyl)-S-methylsulfonimidoyl)phenyl)-2-(4,4-difluoroazepan-1-yl)-4-methyl-5-(1-methyl-1H-pyrazol-4-yl)nicotinamide formate]	5 to 50	5 to 50
C[S@@](=N)(=O)c1cccc(NC(=O)c2cc(Cl)c(C(F)(F)F)cc2N2CCC(C(F)(F)F)CC2)c1 [Example 219, (R)-5-chloro-N-(3-(S-methylsulfonimidoyl)phenyl)-4-(trifluoromethyl)-2-(4-(trifluoromethyl)piperidin-1-yl)benzamide]	≤ 5	≤ 5
Cc1c(C(=O)Nc2cccc([S@](C)(=N)=O)c2)c(N2CCCC(F)(F)CC2)nc(C(F)(F)F)c1-c1ccc(C#N)cc1 [Example 131, (R)-5-(4-cyanophenyl)-2-(4,4-difluoroazepan-1-yl)-4-methyl-N-(3-(S-methylsulfonimidoyl)phenyl)-6-(trifluoromethyl)nicotinamide]	≤ 5	≤ 5
Cc1ccc(-c2nnc(N3CCCC(F)(F)CC3)c(C(=O)Nc3cccc([S@](C)(=N)=O)c3)c2C)cc1 [Example 225, (R)-3-(4,4-difluoroazepan-1-yl)-5-methyl-N-(3-(S-methylsulfonimidoyl)phenyl)-6-(p-tolyl)pyridazine-4-carboxamide]	5 to 50	5 to 50
Cc1ccnc(N2CCCC(F)(F)CC2)c1C(=O)Nc1cccc(S(C)(=N)=O)c1 (stereo not drawn) [Example 105, 2-(4,4-difluoroazepan-1-yl)-4-methyl-N-(3-(S-methylsulfonimidoyl)phenyl)nicotinamide]	50 to 100	50 to 100
Cc1c(C(F)(F)F)nnc(N2CCCC(F)(F)CC2)c1C(=O)Nc1cccc(S(=N)(N)=O)c1 (stereo not drawn) [Example 115, 3-(4,4-difluoroazepan-1-yl)-5-methyl-N-(3-sulfamidimidoylphenyl)-6-(trifluoromethyl)pyridazine-4-carboxamide]	≤ 5	≤ 5
Cc1c(C(F)(F)F)cnc(N2CCCC(F)(F)CC2)c1C(=O)Nc1ccnc([S@](C)(=N)=O)c1 (single isomer, unassigned) [Example 189]	≤ 5	≤ 5
Cc1c(N2CC3(COC3)C2)cnc(N2CCCC(F)(F)CC2)c1C(=O)Nc1cccc([S@](C)(=N)=O)c1 [Example 116, (R)-2-(4,4-difluoroazepan-1-yl)-4-methyl-N-(3-(S-methylsulfonimidoyl)phenyl)-5-(2-oxa-6-azaspiro[3.3]heptan-6-yl)nicotinamide]	> 200	> 200
Cc1c(-c2ccc(C#N)cc2)nnc(N2CCCC(F)(F)CC2)c1C(=O)Nc1cccc([S@](C)(=N)=O)c1 [Example 154, (R)-6-(4-cyanophenyl)-3-(4,4-difluoroazepan-1-yl)-5-methyl-N-(3-(S-methylsulfonimidoyl)phenyl)pyridazine-4-carboxamide]	50 to 100	50 to 100
Cc1c(C(F)(F)F)cnc(N2CCCC(F)(F)CC2)c1C(=O)Nc1cccc([S@@](C)(=O)=NC(=O)CN)c1 [Example 181, (R)-2-(4,4-difluoroazepan-1-yl)-N-(3-(N-glycyl-S-methylsulfonimidoyl)phenyl)-4-methyl-5-(trifluoromethyl)nicotinamide]	≤ 5	≤ 5
Cc1c(-c2ccc(C(F)(F)F)cc2)cnc(N2CCCC(F)(F)CC2)c1C(=O)Nc1cccc([S@](C)(=N)=O)c1 [Example 169, (R)-2-(4,4-difluoroazepan-1-yl)-4-methyl-N-(3-(S-methylsulfonimidoyl)phenyl)-5-(4-(trifluoromethyl)phenyl)nicotinamide]	≤ 5	≤ 5
Cc1c(C(F)(F)F)nnc(N2CCCCCC2)c1C(=O)Nc1cccc(S(C)(=N)=O)c1 (stereo not drawn) [Example 7, 3-(azepan-1-yl)-5-methyl-N-(3-(S-methylsulfonimidoyl)phenyl)-6-(trifluoromethyl)pyridazine-4-carboxamide]	100 to 200	100 to 200
Cc1c(-c2cccc(F)c2)cnc(N2CCCC(F)(F)CC2)c1C(=O)Nc1cccc([S@](C)(=N)=O)c1 [Example 110, (R)-2-(4,4-difluoroazepan-1-yl)-5-(3-fluorophenyl)-4-methyl-N-(3-(S-methylsulfonimidoyl)phenyl)nicotinamide]	≤ 5	≤ 5
NC(=O)c1cccc(NC(=O)c2nnc(C(F)(F)F)cc2N2CCCC(F)(F)CC2)c1 [Example 38, N-(3-Carbamoylphenyl)-4-(4,4-difluoroazepan-1-yl)-6-(trifluoromethyl)pyridazine-3-carboxamide]	> 200	> 200
Cc1c(C(F)(F)F)nnc(N2CCCC(F)(F)CC2)c1C(=O)Nc1ccnnc1 [Example 31, 3-(4,4-Difluoroazepan-1-yl)-5-methyl-N-(pyridazin-4-yl)-6-(trifluoromethyl)pyridazine-4-carboxamide]	> 200	> 200
Cc1nc(N2CCC3(CC2)CC3)c(C(=O)Nc2cccc([S@](C)(=N)=O)c2)cc1Cl [Example 26, (R)-5-Chloro-6-methyl-N-(3-(S-methylsulfonimidoyl)phenyl)-2-(6-azaspiro[2.5]octan-6-yl)nicotinamide]	≤ 5	≤ 5
Cc1c(-c2ccccc2)nnc(N2CCCC(F)(F)CC2)c1C(=O)Nc1cccc([S@@](C)(=N)=O)c1 [Example 117, (S)-3-(4,4-difluoroazepan-1-yl)-5-methyl-N-(3-(S-methylsulfonimidoyl)phenyl)-6-phenylpyridazine-4-carboxamide]	50 to 100	100 to 200
CNCC(=O)N=[S@@](C)(=O)c1cccc(NC(=O)c2c(N3CCCC(F)(F)CC3)nnc(C(F)(F)F)c2C)c1 [Example 44, (S)-3-(4,4-difluoroazepan-1-yl)-5-methyl-N-(3-(S-methyl-N-(methylglycyl)sulfonimidoyl)phenyl)-6-(trifluoromethyl)pyridazine-4-carboxamide]	5 to 50	5 to 50
CNCC(=O)N=[S@](C)(=O)c1cccc(NC(=O)c2c(N3CCCC(F)(F)CC3)ncc(-c3cnn(C4CC4)c3)c2C)c1 [Example 70, (R)-5-(1-cyclopropyl-1H-pyrazol-4-yl)-2-(4,4-difluoroazepan-1-yl)-4-methyl-N-(3-(S-methyl-N-(methylglycyl)sulfonimidoyl)phenyl)nicotinamide]	≤ 5	≤ 5
C[S@@](=N)(=O)c1cccc(NC(=O)c2c(N3CCCC(F)(F)CC3)cnc(C(F)(F)F)c2Cl)c1 [Example 208, (R)-3-chloro-5-(4,4-difluoroazepan-1-yl)-N-(3-(S-methylsulfonimidoyl)phenyl)-2-(trifluoromethyl)isonicotinamide]	5 to 50	5 to 50
C=CCCc1ccc(C(=O)Nc2cccc(S(C)(=N)=O)c2)c(N2CCCC(F)(F)CC2)n1 (stereo not drawn) [Example 13, 6-(3-Buten-1-yl)-2-(4,4-difluoroazepan-1-yl)-N-(3-(S-methylsulfonimidoyl)phenyl)nicotinamide]	≤ 5	≤ 5
CC#Cc1cnc(N2CCCC(F)(F)CC2)c(C(=O)Nc2cccc([S@](C)(=N)=O)c2)c1C [Example 127, (R)-2-(4,4-difluoroazepan-1-yl)-4-methyl-N-(3-(S-methylsulfonimidoyl)phenyl)-5-(prop-1-yn-1-yl)nicotinamide]	≤ 5	≤ 5
CS(=O)(=O)c1cccc(NC(=O)c2nnc(C(F)(F)F)cc2N2CCCCCC2)c1 [Example 37, 4-(Azepan-1-yl)-N-(3-(methylsulfonyl)phenyl)-6-(trifluoromethyl)pyridazine-3-carboxamide]	> 200	> 200
Cc1nc(N2CCCC(F)(F)CC2)c(C(=O)Nc2cccc(S(=N)(N)=O)c2)cc1C(F)(F)F (stereo not drawn) [Example 121, 2-(4,4-difluoroazepan-1-yl)-6-methyl-N-(3-sulfamidimidoylphenyl)-5-(trifluoromethyl)nicotinamide]	≤ 5	≤ 5
Cc1c(C(F)(F)F)cnc(N2CCCC(F)(F)CC2)c1C(=O)Nc1ccnc([S@@](C)(=N)=O)c1 (single isomer, unassigned) [Example 188]	≤ 5	≤ 5
Cc1c(-c2cnn(C)c2)cnc(N2CCCC(F)(F)CC2)c1C(=O)Nc1cccc([S@@](C)(=O)=NC(=O)[C@H](C)N)c1 [Example 76, N-(3-((R)-N-(L-alanyl)-S-methylsulfonimidoyl)phenyl)-2-(4,4-difluoroazepan-1-yl)-4-methyl-5-(1-methyl-1H-pyrazol-4-yl)nicotinamide formate]	≤ 5	≤ 5
Cc1c(C#N)c(C(F)(F)F)nc(N2CCCC(F)(F)CC2)c1C(=O)Nc1cccc([S@@](C)(=O)=NC(=O)CCN)c1 [Example 58, (R)-N-(3-(N-(3-aminopropanoyl)-S-methylsulfonimidoyl)phenyl)-5-cyano-2-(4,4-difluoroazepan-1-yl)-4-methyl-6-(trifluoromethyl)nicotinamide formate]	≤ 5	≤ 5
Cc1nc(N2CCC3(CC2)CC3)c(C(=O)Nc2cccc([S@@](C)(=N)=O)c2)cc1Cl [Example 27, (S)-5-Chloro-6-methyl-N-(3-(S-methylsulfonimidoyl)phenyl)-2-(6-azaspiro[2.5]octan-6-yl)nicotinamide]	≤ 5	≤ 5
